The values that follow come from patent US9790563B2, “Method for treating liver cancer” (priority 2014, dated 2017).

Data set [1] concerns Hep3B cells. Kind of data set: MTT cytotoxicity assay. The class given is cell-based. The note with it: 72 hours, 0-10 μM. As for the experimental part: (§1) In the following trials, liver cancer cells including Hep3B, Hep3Bx, HepG2 and HepG2x cells are used. The Hep3Bx and HepG2x cells, derived from the Hep3B and HepG2 cells, respectively, are cell lines constitutively expressing HBx. All of the liver cancer cells are incubated in a 37° C. incubator. DME/F12 with 10% FBS is used as media for incubating the cell lines. Moreover, lapatinib is dissolved in DMSO with different concentration.
(§2) Cytotoxicity of lapatinib to the Hep3B and Hep3Bx cells is monitored using the MTT 3-(4,5-dimethylthiazol-2-yl)-2,5-diphenyltetrazolium bromide assay. First, the Hep3B and Hep3Bx cells are inoculated in a 96-well pate with 5,000-10,000 cells per well. After incubating at 37° C. for 24 hours, 0, 0.1, 0.5, 1, 5 and 10 μM of lapatinib is added into the medium for further incubation at 37° C. for 72 hours, respectively. 0.025 mL of MTT solution ([…] of MTT dissolved in 1 mL of 1×PBS) is added into 0.1 mL of the medium, followed by incubating at 37° C. for 4 hours. Succinate dehydrogenase, bound to the inner mitochondrial membrane of the living cells, is capable of reducing MTT to its insoluble formazan, which has a purple color. Therefore, after removing the supernatants, 0.1 mL of DMSO is added to dissolve the insoluble formazan into a colored solution.

Data set [2] deals with Hep3Bx cells. The experiment in a line: MTT cytotoxicity assay. The class given is cell-based. The note with it: 72 hours, 0-10 μM. As for the experimental part: as §1, §2
Data set [3] relates to Hep3B cells. Kind of data set: sub-G1 phase arrest by PI flow cytometry. The class given is cell-based. The note with it: 120 hours, different concentrations. As for the experimental part: (§3) The Hep3B and Hep3Bx cells are inoculated in 3.5-cm petri dishes, respectively. After the Hep3B and Hep3Bx cells cover 50 to 60% of the 3.5-cm petri dishes, 3 mL of fresh medium with different concentrations of lapatinib is added, followed by incubation at 37° C. for 120 hours. The cultured Hep3B and Hep3Bx cells are resuspended in 3 mL of 75% ethanol in a concentration of 1.5×10^5 cells per mL and fixed at −20° C. for at least 2 hours. Finally, the fixed Hep3B and Hep3Bx cells are mixed with 0.5 mL of PI buffer at 37° C. for 30 minutes. The sub-G1 phase arresting cells with a DNA content less than 2n, which are usually the result of apoptotic DNA fragmentation are detected and measured by a sub-G1 peak in the fluorescence histogram of flow cytometry.

The test system of data set [4] is Hep3Bx cells. The experiment in a line: sub-G1 phase arrest by PI flow cytometry. The class given is cell-based. As to conditions: 120 hours, different concentrations. On the procedure:
as §3

For data set [5], the system named is Hep3B cells. Kind of data set: Western blotting of cleaved PARP and cleaved Caspase-3. The class given is cell-based. On the procedure:
(§4) Western blotting is performed with anti-PARP antibody (1: 1,000, purchased from Cell Signaling) and anti-Caspase-3 antibody (1: 1,000, purchased from Cell Signaling). The anti-Actin antibody (1: 10,000, purchased from Sigma) is used as an internal control.

In data set [6] the test system is Hep3Bx cells. The data set is described as above. The note with it: higher concentration. The class given is cell-based. As for the experimental part:
as §4

Data set [7] relates to vector-transfected Hep3B cells (group D1). Kind of data set: cell viability after lapatinib treatment (FIG. 4b). The class given is cell-based.
The test system of data set [8] is myc-HBx-transfected Hep3B cells (group D2). The experiment in a line: cell viability after lapatinib treatment (FIG. 4b). The class given is cell-based. The source says:
(§5) In the trial (D) and (E), HBx is introduced into the Hep3B cells via transient transfection and virus transduction, respectively. Cytotoxicity of lapatinib to the HBx-transfected or HBx-virus transduced Hep3B cells is further monitored by the crystal violet assay.
That is, pcDNA6/myc-His A vector is used as a control (group D1) and the C-terminal myc-tagged HBx plasmid expressing myc-HBx expression protein constructed with primers with sequences set forth in SEQ ID NOs. 5 and 6 is used as the group D2.
(§6) The plasmids are transfected into the Hep3B cells as the following procedure: 1 μg of the plasmids are mixed with 1 μL of TransIT2020 transfection reagent, and the mixture is incubated with the fresh medium without FBS at room temperature for 30 minutes to obtain the vector-transfected Hep3B cells (group D1) and the myc-HBx-transfected Hep3B cells (group D2).

In data set [9] the test system is vector-transfected Hep3B cells (group D1). Kind of data set: crystal violet staining (FIG. 4c). The class given is cell-based. The note with it: 1 μM, 120 hours.
Data set [10] concerns myc-HBx-transfected Hep3B cells (group D2). Kind of data set: crystal violet staining (FIG. 4c). The class given is cell-based. As to conditions: 1 μM, 120 hours. As for the experimental part: as §6
Moreover, 1×10^5 cells of the vector-transfected Hep3B cells (group D1) and the myc-HBx-transfected Hep3B cells (group D2) are further treated with 1 μM of lapatinib. Also, DMSO is used to treat the vector-transfected Hep3B cells (group D1) and the myc-HBx-transfected Hep3B cells (group D2) as a solvent control. After culturing at 37° C. for 120 hours, the supernatants are removed and 10 mg/mL of crystal violet solution dissolving in 30% ethanol is added to the cultured Hep3B cells for 15 to 30 minutes. Crystal violet solution can stain the nuclei of the living cells adhering to the petri dishes.

Data set [11] deals with HBx-virus transduced Hep3B cells (group E2). Kind of data set: cell viability after lapatinib treatment (FIG. 5b). The class given is cell-based.
From the text: as §5
(§7) That is, pDEST-V5 vector is used as a control (group E1) and the HBx plasmid expressing HBx expression protein constructed with primers with sequences set forth in SEQ ID NOs. 7 and 8 is used as the group E2.
(§8) The plasmids are virus transduced into the Hep3B cells as the following procedure: the Hep3B cells are inoculated in 3.5-cm petri dishes with concentration of 2×10^5 cells per petri dish. After incubating for 24 hours, virus with 100 MOI is used to transduce the plasmids into the cultured Hep3B cells. Fresh media are replaced after 16 hours and the following experiments are performed 4 days later.

Data set [12] relates to vector-virus transduced Hep3B cells (group E1). Kind of data set: cell viability after lapatinib treatment (FIG. 5b). The class given is cell-based.
From the text: as §5, §7, §8

The subject of data set [13] is HBx-minus mutant-transfected Hep3B cells (group F3). Kind of data set: crystal violet assay (FIG. 6c). As to conditions: 1 μM, 120 hours. The text has this: (§9) The genome of HBV contains 4 known genes including genes C, X, P and S. To define the role of HBx in cytotoxicity of lapatinib to liver cancer, the plasmids being thankful presents from Dr. Seishi Murakami (J. Virology, 79 (9): 5548-5556, 2005) are used to transiently transfect into the Hep3B cells in the trial (F). […] The plasmid containing an ochre termination signal (CAA to UAA) after codon 7 (at codon 8) in the HBx ORF is used as the group F3. The plasmids are transiently transfected into the Hep3B and HepG2 cells as described above.
(§10) The transfected Hep3B and HepG2 cells are treated with DMSO or 1 μM of lapatinib for 120 hours and the DMSO- or lapatinib-treated cells are analyzed by crystal violet assay.

The test system of data set [14] is HBx-minus mutant-transfected HepG2 cells (group F3). Kind of data set: crystal violet assay (FIG. 6c). As to conditions: 1 μM, 120 hours.
From the text: as §9, §10

The subject of data set [15] is vector-transfected Hep3B cells (group F1). The experiment in a line: crystal violet assay (FIG. 6c). The note with it: 1 μM, 120 hours.
From the text: as §9, §10

The subject of data set [16] is vector-transfected HepG2 cells (group F1). The experiment in a line: crystal violet assay (FIG. 6c). As to conditions: 1 μM, 120 hours.
From the text: as §9, §10

In data set [17] the test system is wild-type HBV genome-transfected Hep3B cells (group F2). Kind of data set: crystal violet assay (FIG. 6c). As to conditions: 1 μM, 120 hours.
From the text: as §9, §10

The subject of data set [18] is wild-type HBV genome-transfected HepG2 cells (group F2). The experiment in a line: crystal violet assay (FIG. 6c). As to conditions: 1 μM, 120 hours.
From the text: as §9, §10

Data set [19] concerns ErbB3-transfected Hep3B cells (group K2). Kind of data set: cell numbers by light and fluorescence microscopy (FIG. 11b-d). The class given is cell-based. As to conditions: 120 hours. The text has this:
That is, pDSRed vector is used as a control (group K1) and the ErbB3 protein-expressing plasmid constructed with primers with sequences set forth in SEQ ID NOs. 11 and 12 is used as the group K2.
Cell numbers of the vector- or ErbB3-transfected Hep3B cells are monitored using a fluorescence microscope with an excitation wavelength of 535 nm. […] The cell number of the lapatinib-treated vector-transfected Hep3B cells divides by the cell number of the DMSO-treated vector-transfected Hep3B cells and the cell number of the lapatinib-treated ErbB3-transfected Hep3B cells divides by the cell number of the DMSO-treated ErbB3-transfected Hep3B cells. As a result, after lapatinib treatment for 120 hours, the quantitative cell viability of ErbB3-transfected Hep3B cells is merely smaller than 20%. That is, ErbB3 transfection induces […] of Hep3B cells to lapatinib.

The subject of data set [20] is ErbB3-specific siRNA-treated Hep3Bx cells. The experiment in a line: crystal violet staining (FIG. 12b). The class given is cell-based. The note with it: ErbB3-specific siRNA-treated Hep3Bx cells compared to control siRNA-treated, 120 hours. On the procedure:
(§11) 5 μL of 20 μM siRNA is mixed with 1 μL of the transfection reagent and 100 μL of the medium without FBS. 30 minutes later, the siRNA-containing mixture is added into the medium-discarded Hep3Bx cells with a final volume of 1 mL. After incubating for 5 hours, the FBS containing medium as added to a final volume of 2 mL. The following experiment is performed 4-day posttransfection.
(§12) ErbB3-specific siRNA with a sequence as set forth in SEQ ID NO: 13 is used to silence expression of ErbB3 in the Hep3Bx cells. The control siRNA with a sequence as set forth in SEQ ID NO: 10 is used as a control.

In the next data set the test system is liver cancers. The note with it: clinical trial; cited from earlier work.
The next data set deals with HBx in Hep3Bx cells. The experiment in a line: siRNA silencing of HBx, Western blotting (FIG. 9e). The class given is cell-based. As to conditions: 4-day posttransfection. On the procedure:
HBx-specific siRNA with a sequence as set forth in SEQ ID NO: 9 and a control siRNA with a sequence as set forth in SEQ ID NO: 10 are used to further confirm the relationship between HBx and ErbB3 in the Hep3Bx cells.
as §11

The test system of a further data set is ErbB3 in Hep3Bx cells. Kind of data set: siRNA silencing of ErbB3 (FIG. 12a). The class given is cell-based. On the procedure: as §11, §12

As to `CS(=O)(=O)CCNCc1ccc(-c2ccc3ncnc(Nc4ccc(OCc5cccc(F)c5)c(Cl)c4)c3c2)o1` [lapatinib], the “lapatinib concentration at which cells show intolerance” value in the data set on Hep3B cells [1] is reported as “more than 5 μM”; in the data set with Hep3Bx cells [2], “more than 0.1 μM”. The sub-G1 phase arrest entry is given as “does not trigger sub-G1 phase arrest” with Hep3B cells [3] and “the higher the treating concentration is, the more sub-G1 phase arresting cells are observed” in the data set on Hep3Bx cells [4]. Further, the “level of cleaved PARP and cleaved Caspase-3” value in the data set with Hep3B cells [5] was “does not increase the level of cleaved PARP and cleaved Caspase-3”; with Hep3Bx cells [6] it was “higher level of cleaved PARP and cleaved Caspase-3”. Also, the figures for the “concentration at which lapatinib shows cytotoxicity” value in data set [7] and in [8] were 5 µM and 1 µM, respectively. For the same molecule, the figures for the “cytotoxicity (crystal violet staining)” value in data set [9] and in [10] were “slight cytotoxicity” and “significant cytotoxicity”, respectively. The cells survival result in [11] is listed as “about 60%”. For the same molecule, the cytotoxicity result was “significant cytotoxicity” in [11] and “no cytotoxicity” in data set [12]. Besides, the “cytotoxicity (crystal violet assay)” value in data set [13] is “no cytotoxicity”; in data set [14], “slight cytotoxicity”; in data set [15], “no cytotoxicity”; in data set [16], “slight cytotoxicity”; in [17] it was “obvious cytotoxicity”; in data set [18] it was “significant cytotoxicity”. Besides, in [19] (ErbB3-transfected Hep3B cells (group K2), in comparison to vector-transfected cells), the “cell numbers (light microscopy)” value is given as “reduction of cell numbers”. Further, the quantitative cell viability result in [19] (ErbB3-transfected Hep3B cells, lapatinib-treated cell number divided by DMSO-treated cell number, fluorescence microscope) was “smaller than 20%”. For the same molecule, the “tolerance to lapatinib (crystal violet staining)” value in [20] was “intolerance to lapatinib”. Moreover, the “effectiveness in patients with liver cancers” value in the data set on liver cancers is recorded as “effective for only part of patients with liver cancers”.
For “HBx-specific siRNA: HBx-specific siRNA with a sequence as set forth in SEQ ID NO: 9 (GGTTAAAGGTCTTTGTATT; listed as DNA, chemistry not given here)”, in the data set with HBx in Hep3Bx cells, the “protein level of ErbB3” value is “decreased protein level of ErbB3” and the “protein level of HBx” value is “decreases protein level of HBx”.
As for “ErbB3-specific siRNA: ErbB3-specific siRNA with a sequence as set forth in SEQ ID NO: 13 (GCGATGCTGAGAACCAATA; listed as DNA, chemistry not given here)”, in the data set on ErbB3 in Hep3Bx cells, the “mRNA level of ErbB3” value is reported as “decreases mRNA level of ErbB3” and the “protein level of ErbB3” value is listed as “decreased protein level of ErbB3”.
